The text below walks through data of paper PMC4013357 (The Journal of Veterinary Medical Science, 2013).

The target in this assay is T1, rBboDHODH (Babesia bovis dihydroorotate dehydrogenase) (Babesia bovis, UniProt A7AUQ8).
T1 sequence (A7AUQ8 1-415): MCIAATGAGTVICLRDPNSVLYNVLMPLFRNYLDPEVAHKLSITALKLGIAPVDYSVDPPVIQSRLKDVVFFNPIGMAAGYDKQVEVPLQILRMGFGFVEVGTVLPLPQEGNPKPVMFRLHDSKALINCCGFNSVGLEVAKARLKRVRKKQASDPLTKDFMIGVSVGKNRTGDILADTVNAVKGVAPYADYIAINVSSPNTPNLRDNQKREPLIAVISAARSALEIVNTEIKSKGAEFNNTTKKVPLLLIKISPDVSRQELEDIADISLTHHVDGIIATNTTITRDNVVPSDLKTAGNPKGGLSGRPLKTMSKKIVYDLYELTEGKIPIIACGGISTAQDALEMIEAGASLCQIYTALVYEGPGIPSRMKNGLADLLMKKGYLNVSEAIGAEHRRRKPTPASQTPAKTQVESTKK
Put plainly: biochemical. Particulars: read-out: Relative activity (%).

Each structure is given as a SMILES string.

`O=C1C(O)=C([C@H]2CC[C@H](c3ccc(Cl)cc3)CC2)C(=O)c2ccccc21` [ATV, atovaquone]: the activity at 1 µM worked out at 19.1%.

Turning to `Cc1oncc1C(=O)Nc1ccc(C(F)(F)F)cc1` [LFN, leflunomide], the activity at 1000 µM amounted to 51.6%.
